Data published in patent US6835724B2, “Corticoid 17,21-dicarboxylic esters and corticosteroid 17-carboxylic ester 21-carbonic esters, processes for their preparation and pharmaceuticals containing these compounds” (Aventis Pharma Deutschland GmbH, priority 1993, dated 2004).

How the values were obtained:
rat croton oil ear edema = assay: Local antiinflammatory effect in rat croton oil ear edema following epicutaneous application; type: in vivo; conditions: for Inhibition in % / x ± s (mg), weight difference of treated and untreated ear disks: 4 h; for x ± s (mg), weight difference of treated and untreated ear disks: TPA irritant, control 21.2 ± 5.1; for local antiinflammatory effect: summary in words
Description: 1. Local antiinflammatory effect in rat croton oil ear edema following epicutaneous application […] The left ear remained untreated. […] The corticoids under examination were dissolved in this solution in the given final concentrations. Controls only received the TPA/solvent mixture. The animals were sacrificed using CO2 4 h after the epicutaneous treatment. Disks measuring 8 mm in diameter were punched out of the right (treated) and the left (untreated) ears and weighed immediately.

Carrageenan paw edema = assay: Systemic antiinflammatory effect following subcutaneous administration: Carrageenan paw edema in rats; type: in vivo, rat; conditions: for Increase in volume: 6 hours after carrageenan, control 0.58 ± 0.16; for systemic activity: summary in words
From the text: 2 a) Examining for systemic antiinflammatory effect in the “antiinflammatory effect following subcutaneous administration: Carrageenan paw edema in rats” test. The carrageenan paw edema test in rats in accordance with the method described by Winter et al., Proc. Soc. exp. Biol. (New York) 111, 544 (1962) was chosen as the test for the acute systemic antiinflammatory effect. […] Controls were only given sesame oil. The paw volumes are given in ml, x±s.

gluconeogenesis = assay: Systemic effect: gluconeogenesis in adrenalectomized rats; conditions: for Glycogen + glucose mg/100 g of liver: 6 hours, control 11.2 ± 1.7; for effect on new formation of glucose and glycogen: t test against control
Description: 2 b) Examining for systemic effect: gluconeogenesis in rats
A sensitive method for detecting systemic effects on carbohydrate metabolism is to examine the gluconeogenic effect of corticosteroids in the adrenalectomized rat.
Three days prior to the experiment, groups of in each case 6 rats are adrenalectomized under pentobarbital anesthesia and provided with 0.9% sodium chloride solution as drinking fluid. Two days later, i.e. 24 hours before initiating the experiment, the feed is removed in order to reduce the glycogen stores in the liver.
On the day of the experiment, the preparations under examination are administered subcutaneously, dissolved in sesame oil (2 ml/kg). Six hours later, the animals are decapitated, and in each case the liver is removed and 1 g thereof is taken up in 5 ml of 0.6 molar perchloric acid. After homogenization, the free glucose is measured in the supernatant from the centrifugation, while the centrifugation sediment (centrifugate; glycogen) is cleaved enzymically with amyloglucosidase, after which the glucose content is also measured in this fraction (Hexokinase method, Boehringer Mannheim).

Structure (SMILES) | Inhibition in % (rat croton oil ear edema; 0.1 mg/ml epicutaneous) [%] | x ± s (mg), weight difference of treated and untreated ear disks (rat croton oil ear edema; 0.1 mg/ml epicutaneous) [mg] | Inhibition in % (rat croton oil ear edema; 0.3 mg/ml epicutaneous) [%] | x ± s (mg), weight difference of treated and untreated ear disks (rat croton oil ear edema; 0.3 mg/ml epicutaneous) [mg] | Inhibition in % (rat croton oil ear edema; 1.0 mg/ml epicutaneous) [%] | x ± s (mg), weight difference of treated and untreated ear disks (rat croton oil ear edema; 1.0 mg/ml epicutaneous) [mg] | local antiinflammatory effect (rat croton oil ear edema) | Increase in volume (Carrageenan paw edema; 0.3 mg/kg s.c.) [mL] | Increase in volume (Carrageenan paw edema; 3.0 mg/kg s.c.) [mL] | systemic activity (Carrageenan paw edema) | Glycogen + glucose mg/100 g of liver (gluconeogenesis; 0.3 mg/kg s.c.) | effect on new formation of glucose and glycogen (gluconeogenesis; 0.3 mg/kg s.c.) | Glycogen + glucose mg/100 g of liver (gluconeogenesis; 3.0 mg/kg s.c.)
C[C@]12C=CC(=O)C=C1CC[C@@H]1[C@@H]2[C@@H](O)C[C@@]2(C)[C@H]1CC[C@]2(OC(=O)c1ccccc1)C(=O)COC(=O)Cc1ccccc1 [Compound I, prednisolone 17-benzoate 21-phenylacetic ester] | 76 | 5.0 ± 3.1 | 85 | 3.1 ± 2.5 | 91 | 2.0 ± 1.4 | strong | 0.46 ± 0.19 | 0.38 ± 0.15 | weak | 20.4 ± 11.7 n.s. mg/100 g of liver | still do not have any significant effect | 96.0 ± 26.2 mg/100 g of liver
C[C@H]1C[C@H]2[C@@H]3CCC4=CC(=O)C=C[C@]4(C)[C@@]3(F)[C@@H](O)C[C@]2(C)[C@@]1(OC(=O)c1ccccc1)C(=O)COC(=O)Cc1ccccc1 [Compound II, betamethasone 17-benzoate 21-phenylacetic ester] | 67 | 7.0 ± 3.3 | 77 | 4.9 ± 3.3 | 95 | 1.1 ± 0.9 | strong | 0.56 ± 0.09 | 0.45 ± 0.14 | weak | 10.8 ± 1.3 n.s. mg/100 g of liver | still do not have any significant effect | 81.2 ± 61.7 mg/100 g of liver
CCOC(=O)O[C@]1(C(=O)COC(=O)CC)CC[C@H]2[C@@H]3CCC4=CC(=O)C=C[C@]4(C)[C@H]3[C@@H](O)C[C@@]21C [Prednicarbate, prednisolone 17-ethyl carbonate 21-propionate, reference compound] | 75 | 5.2 ± 3.3 | 88 | 2.6 ± 2.4 | – | – | – | 0.36 ± 0.13 | 0.09 ± 0.08 | – | – | – | –
